Reference: PMC7247319, “The mitochondria-targeted peptide SS-31 binds lipid bilayers and modulates surface electrostatics as a key component of its mechanism of action” (The Journal of Biological Chemistry, 2020)
Where a SMILES comes first, the peptide text is derived from it. [ ]: non-standard residue; d: D form. Dmt = Cc1cc(O)cc(C)c1C[C@H](N)C(=O)O

Assays:
[1] = tested on: LUVs composed of POPC alone or with 20% TOCL, MLCL, or POPG; experiment: Synchrotron SAXS and 31P solid-state NMR of model membranes; settings: highest peptide concentration, [P]/[L]^eff = 1:5; 2 mM total lipid
From the text: Amphipathic molecules such as antimicrobial peptides can induce large structural changes in membranes, including micellization, pore formation, and induction of inverted topologies ([45]). We therefore addressed whether SS-31 induced structural polymorphism within model bilayers using a range of approaches (Fig. 4). […] Similarly, based on ^31P solid-state NMR (ssNMR) measurements, these model membranes yielded line shapes consistent with lamellar bilayers ([47]), and we observed no effect of SS-31 on bilayer structure (Fig. 4B, supporting Results F, and Fig. S10B). […] Thus, these membranes are expected to exist stably in the liquid crystalline lamellar mesophase over all peptide concentrations.
Figure 4. Effects of SS-31 on structural properties of model membranes. […] LUVs composed of 20% anionic lipid (TOCL, MLCL, or POPG) in POPC background were measured in the absence or presence of peptide ([SS-31]/[lipid]^eff = 1:5) as indicated. […] Data and fits in gray show SS-31 fractional saturation (calculated from Fig. 2A, [lipid]^eff = 25 μM). […]
NMR data were recorded at 162 MHz on a Bruker AVANCE III 400-MHz WB spectrometer equipped with an HXY probe tuned for ^1H and ^31P. […] Model membranes (LUVs) were measured at 25 °C (total of 10,240 scans/sample) with a total lipid concentration of 2 mM lipid in the presence of different concentrations of SS-31 (0, 1:500, 1:50, and 1:5 [P]/[L]^eff). […]

[2] = tested on: LUVs containing 20% TOCL or POPG in POPC background; experiment: Fluorescent reporters of lipid dynamics and packing (DPH anisotropy, laurdan and prodan GP)
Experimental: Figure 4. Effects of SS-31 on structural properties of model membranes. […] LUVs composed of 20% anionic lipid (TOCL, MLCL, or POPG) in POPC background were measured in the absence or presence of peptide ([SS-31]/[lipid]^eff = 1:5) as indicated. A, synchrotron SAXS measurements showing background-subtracted scattering density profiles for LUVs in the absence (black) or presence (red) of SS-31. B, ^31P solid-state NMR spectra of LUVs in the absence (bottom spectra) or presence (top spectra) of SS-31. C, SS-31 alters lipid packing interactions. Shown are changes in laurdan and prodan GP values (ΔGP) with increasing [SS-31] for LUVs containing 20% TOCL or POPG in POPC background as indicated. Data and fits in gray show SS-31 fractional saturation (calculated from Fig. 2A, [lipid]^eff = 25 μM). […]
We therefore addressed whether SS-31 altered lipid interactions within these model bilayers. […] Using 1,6-diphenyl-1,3,5-hexatriene (DPH) anisotropy (〈r〉^DPH) as a readout of the fluid dynamics of hydrocarbon tails, we observed no effect of SS-31 in TOCL- or POPG-containing membranes (Fig. S10, D and E). […]
Steady-state fluorescence measurements were performed with a Fluorolog 3-22 spectrofluorometer (HORIBA Jobin-Yvon) equipped with photon-counting electronics, double-grating excitation and emission monochromators, automated Glan–Thompson polarizers, and a 450-watt xenon lamp. […]

Cc1cc(O)cc(C)c1C[C@H](NC(=O)[C@H](N)CCCNC(=N)N)C(=O)N[C@@H](CCCCN)C(=O)N[C@@H](Cc1ccccc1)C(N)=O [SS-31, D-Arg-2′6′-dimethyl-Tyr-Lys-Phe-NH2] (H-[dR][Dmt]KF-NH2)
effect on bilayer structure / lamellarity (SAXS, 31P ssNMR) [1]: did not cause major topological alterations | effect on DPH anisotropy (fluid dynamics of hydrocarbon tails) ([2]; TOCL- or POPG-containing membranes): no effect | effect on laurdan and prodan generalized polarization (GP^LAU, GP^PRO) ([2]; increasing [SS-31], 20% TOCL or POPG LUVs, n = 3): modest, yet repeatable and saturable, increases
